Results as given in ChEMBL document CHEMBL5291721, “A preclinical secondary pharmacology resource illuminates target-adverse drug reaction associations of marketed drugs” (Nat Commun, 2023).

Experiments:
D(3) dopamine receptor = D(3) dopamine receptor (Homo sapiens, UniProt P35462)
[1] = target: T1, Muscarinic acetylcholine receptor M2 (Homo sapiens, UniProt P08172)
T1 sequence (P08172 whole entry): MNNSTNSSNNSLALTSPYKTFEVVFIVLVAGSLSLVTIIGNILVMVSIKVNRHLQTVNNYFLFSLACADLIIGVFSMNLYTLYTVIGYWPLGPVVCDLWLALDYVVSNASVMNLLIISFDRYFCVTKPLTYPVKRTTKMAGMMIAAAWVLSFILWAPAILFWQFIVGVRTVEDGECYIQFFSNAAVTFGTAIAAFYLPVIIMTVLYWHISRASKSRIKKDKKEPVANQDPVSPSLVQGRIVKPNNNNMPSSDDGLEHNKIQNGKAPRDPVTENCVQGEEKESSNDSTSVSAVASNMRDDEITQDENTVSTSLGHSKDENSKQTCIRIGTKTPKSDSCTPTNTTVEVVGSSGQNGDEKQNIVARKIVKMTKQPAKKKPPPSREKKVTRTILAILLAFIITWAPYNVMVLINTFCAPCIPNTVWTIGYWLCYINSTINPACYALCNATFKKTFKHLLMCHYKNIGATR

[2] = target: Sodium-dependent noradrenaline transporter (Homo sapiens, UniProt P23975)
Chain of Sodium-dependent noradrenaline transporter (P23975 whole entry): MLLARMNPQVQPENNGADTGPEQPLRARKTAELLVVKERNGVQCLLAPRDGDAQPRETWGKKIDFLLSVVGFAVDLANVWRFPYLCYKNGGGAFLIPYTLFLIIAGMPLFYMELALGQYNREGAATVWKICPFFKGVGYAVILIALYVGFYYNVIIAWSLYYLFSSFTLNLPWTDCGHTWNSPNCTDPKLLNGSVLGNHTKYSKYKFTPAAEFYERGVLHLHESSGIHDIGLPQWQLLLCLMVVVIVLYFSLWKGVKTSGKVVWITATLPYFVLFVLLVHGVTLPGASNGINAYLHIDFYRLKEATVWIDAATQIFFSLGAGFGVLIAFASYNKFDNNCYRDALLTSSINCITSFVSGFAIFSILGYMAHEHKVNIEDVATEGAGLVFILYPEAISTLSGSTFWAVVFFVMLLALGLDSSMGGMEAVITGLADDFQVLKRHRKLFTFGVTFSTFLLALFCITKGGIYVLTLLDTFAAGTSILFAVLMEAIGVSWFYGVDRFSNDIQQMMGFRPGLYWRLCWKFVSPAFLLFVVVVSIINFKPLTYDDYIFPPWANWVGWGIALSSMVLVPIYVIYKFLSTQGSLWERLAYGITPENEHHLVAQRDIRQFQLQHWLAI

[3] = target: T2, Alpha-1A adrenergic receptor (Homo sapiens, UniProt P35348); type: functional, cell-based
T2 sequence (P35348 whole entry): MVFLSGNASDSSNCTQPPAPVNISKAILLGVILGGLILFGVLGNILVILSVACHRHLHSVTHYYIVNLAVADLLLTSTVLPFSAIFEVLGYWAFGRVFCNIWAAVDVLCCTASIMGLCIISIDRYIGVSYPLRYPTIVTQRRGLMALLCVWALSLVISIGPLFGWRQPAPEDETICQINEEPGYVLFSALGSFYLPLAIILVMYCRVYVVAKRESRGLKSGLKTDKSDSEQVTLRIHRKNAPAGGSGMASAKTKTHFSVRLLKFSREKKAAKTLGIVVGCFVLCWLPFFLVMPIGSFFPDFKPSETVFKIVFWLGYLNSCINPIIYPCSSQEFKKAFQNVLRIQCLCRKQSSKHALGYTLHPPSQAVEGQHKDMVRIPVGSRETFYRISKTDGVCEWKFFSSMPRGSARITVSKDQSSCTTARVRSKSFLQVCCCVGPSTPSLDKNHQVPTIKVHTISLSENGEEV

[4] = target: Prostaglandin G/H synthase 1 (Homo sapiens, UniProt P23219); type: functional
Chain of Prostaglandin G/H synthase 1 (P23219 whole entry): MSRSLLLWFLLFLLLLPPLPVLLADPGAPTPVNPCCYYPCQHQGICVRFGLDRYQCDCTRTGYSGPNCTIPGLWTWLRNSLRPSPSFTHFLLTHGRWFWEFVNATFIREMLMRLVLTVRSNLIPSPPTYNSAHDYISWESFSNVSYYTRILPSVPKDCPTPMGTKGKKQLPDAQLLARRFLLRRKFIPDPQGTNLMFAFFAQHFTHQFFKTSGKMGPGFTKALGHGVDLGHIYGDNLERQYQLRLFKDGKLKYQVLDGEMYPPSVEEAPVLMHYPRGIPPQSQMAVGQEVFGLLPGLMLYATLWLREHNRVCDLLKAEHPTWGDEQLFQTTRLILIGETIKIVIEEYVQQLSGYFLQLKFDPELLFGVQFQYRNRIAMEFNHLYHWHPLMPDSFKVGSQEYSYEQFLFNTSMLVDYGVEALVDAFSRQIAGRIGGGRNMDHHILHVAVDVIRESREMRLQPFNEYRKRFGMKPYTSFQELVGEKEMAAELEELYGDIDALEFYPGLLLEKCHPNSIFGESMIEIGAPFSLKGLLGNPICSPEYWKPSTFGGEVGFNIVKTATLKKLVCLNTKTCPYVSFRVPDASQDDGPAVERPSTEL

Prothrombin = Prothrombin (Homo sapiens, UniProt P00734); type: functional
[5] = target: Voltage-gated inwardly rectifying potassium channel KCNH2 (Homo sapiens, UniProt Q12809); type: functional
Chain of Voltage-gated inwardly rectifying potassium channel KCNH2 (Q12809 whole entry): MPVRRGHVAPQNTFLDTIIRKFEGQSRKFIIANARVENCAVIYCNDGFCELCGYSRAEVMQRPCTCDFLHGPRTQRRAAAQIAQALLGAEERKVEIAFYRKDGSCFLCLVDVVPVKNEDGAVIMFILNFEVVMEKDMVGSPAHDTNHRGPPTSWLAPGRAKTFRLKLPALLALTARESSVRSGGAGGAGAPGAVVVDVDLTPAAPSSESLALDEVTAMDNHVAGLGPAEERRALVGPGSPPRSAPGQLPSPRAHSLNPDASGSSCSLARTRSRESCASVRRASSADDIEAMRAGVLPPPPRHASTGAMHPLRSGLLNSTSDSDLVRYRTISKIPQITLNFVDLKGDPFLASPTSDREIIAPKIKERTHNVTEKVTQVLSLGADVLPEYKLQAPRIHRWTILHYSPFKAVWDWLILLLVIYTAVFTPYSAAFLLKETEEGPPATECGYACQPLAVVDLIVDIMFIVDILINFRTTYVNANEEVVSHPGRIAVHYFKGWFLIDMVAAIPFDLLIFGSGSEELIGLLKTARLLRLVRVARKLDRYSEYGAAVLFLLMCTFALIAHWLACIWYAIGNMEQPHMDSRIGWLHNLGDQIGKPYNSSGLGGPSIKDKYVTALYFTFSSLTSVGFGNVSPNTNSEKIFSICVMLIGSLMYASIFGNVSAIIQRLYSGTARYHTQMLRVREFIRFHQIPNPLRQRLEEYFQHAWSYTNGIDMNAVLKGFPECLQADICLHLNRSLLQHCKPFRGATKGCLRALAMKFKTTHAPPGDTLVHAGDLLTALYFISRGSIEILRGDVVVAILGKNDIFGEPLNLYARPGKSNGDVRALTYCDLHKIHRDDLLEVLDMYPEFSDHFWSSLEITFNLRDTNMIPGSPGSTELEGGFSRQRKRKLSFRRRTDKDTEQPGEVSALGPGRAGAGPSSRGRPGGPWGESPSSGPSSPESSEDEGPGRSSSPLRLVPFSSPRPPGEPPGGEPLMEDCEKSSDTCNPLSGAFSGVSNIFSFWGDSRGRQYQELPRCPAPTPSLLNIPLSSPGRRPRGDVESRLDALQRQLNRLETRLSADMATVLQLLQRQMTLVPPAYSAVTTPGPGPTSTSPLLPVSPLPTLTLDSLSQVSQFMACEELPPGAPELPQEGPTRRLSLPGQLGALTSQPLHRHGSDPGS

Histamine H3 receptor = Histamine H3 receptor (Homo sapiens, UniProt Q9Y5N1)
Chain of Histamine H3 receptor (Q9Y5N1 whole entry): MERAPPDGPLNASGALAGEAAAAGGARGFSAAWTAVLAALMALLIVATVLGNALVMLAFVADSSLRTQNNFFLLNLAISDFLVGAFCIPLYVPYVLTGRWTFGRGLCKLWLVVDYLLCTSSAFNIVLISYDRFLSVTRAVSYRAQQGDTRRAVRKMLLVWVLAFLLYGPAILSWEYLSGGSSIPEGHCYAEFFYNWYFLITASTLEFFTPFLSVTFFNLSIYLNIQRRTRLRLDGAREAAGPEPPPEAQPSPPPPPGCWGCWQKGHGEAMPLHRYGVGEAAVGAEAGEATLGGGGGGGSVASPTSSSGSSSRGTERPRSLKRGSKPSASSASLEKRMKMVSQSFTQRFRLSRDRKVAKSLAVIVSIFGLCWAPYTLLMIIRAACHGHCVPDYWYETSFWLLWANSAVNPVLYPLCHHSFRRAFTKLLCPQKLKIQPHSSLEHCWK

[6] = target: T3, 5-hydroxytryptamine receptor 1A (Homo sapiens, UniProt P08908)
T3 sequence (P08908 whole entry): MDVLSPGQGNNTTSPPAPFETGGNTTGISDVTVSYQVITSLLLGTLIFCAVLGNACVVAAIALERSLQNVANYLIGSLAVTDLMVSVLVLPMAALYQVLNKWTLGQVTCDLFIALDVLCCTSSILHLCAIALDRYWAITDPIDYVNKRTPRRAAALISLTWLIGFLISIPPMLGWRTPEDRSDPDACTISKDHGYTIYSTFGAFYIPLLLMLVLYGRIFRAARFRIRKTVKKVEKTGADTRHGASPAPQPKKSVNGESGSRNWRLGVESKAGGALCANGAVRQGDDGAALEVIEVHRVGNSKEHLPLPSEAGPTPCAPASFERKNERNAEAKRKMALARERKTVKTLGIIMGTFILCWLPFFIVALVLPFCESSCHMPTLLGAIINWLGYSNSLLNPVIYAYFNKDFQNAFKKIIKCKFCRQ

Thromboxane A2 receptor [7] = target: T4, Thromboxane A2 receptor (Homo sapiens, UniProt P21731); type: functional, cell-based
T4 sequence (P21731 whole entry): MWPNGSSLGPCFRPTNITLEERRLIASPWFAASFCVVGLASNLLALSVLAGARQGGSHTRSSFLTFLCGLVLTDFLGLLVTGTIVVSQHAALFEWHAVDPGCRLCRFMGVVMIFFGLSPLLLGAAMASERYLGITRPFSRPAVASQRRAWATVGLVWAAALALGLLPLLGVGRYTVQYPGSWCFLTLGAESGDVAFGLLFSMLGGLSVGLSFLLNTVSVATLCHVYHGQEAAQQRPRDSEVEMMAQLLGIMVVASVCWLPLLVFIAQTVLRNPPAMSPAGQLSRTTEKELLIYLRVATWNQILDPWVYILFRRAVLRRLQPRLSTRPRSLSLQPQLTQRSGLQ

[8] = target: T5, Alpha-2A adrenergic receptor (Homo sapiens, UniProt P08913)
T5 sequence (P08913 whole entry): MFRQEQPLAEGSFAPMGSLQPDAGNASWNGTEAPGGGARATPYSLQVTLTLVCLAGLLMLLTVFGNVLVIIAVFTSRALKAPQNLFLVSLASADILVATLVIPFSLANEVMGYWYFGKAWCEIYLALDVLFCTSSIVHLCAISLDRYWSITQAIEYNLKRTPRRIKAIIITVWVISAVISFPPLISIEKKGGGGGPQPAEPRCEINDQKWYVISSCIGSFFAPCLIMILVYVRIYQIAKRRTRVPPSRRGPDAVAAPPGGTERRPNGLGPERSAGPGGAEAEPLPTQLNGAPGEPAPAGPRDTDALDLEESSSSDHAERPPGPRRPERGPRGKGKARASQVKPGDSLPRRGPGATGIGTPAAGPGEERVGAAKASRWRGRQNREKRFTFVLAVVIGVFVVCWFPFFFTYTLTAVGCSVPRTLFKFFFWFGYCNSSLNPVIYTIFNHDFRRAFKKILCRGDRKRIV

Thromboxane A2 receptor [9] = target: T4, Thromboxane A2 receptor; type: functional, cell-based; remark: listed apart in the source
D(1A) dopamine receptor = D(1A) dopamine receptor (Homo sapiens, UniProt P21728)
Chain of D(1A) dopamine receptor (P21728 whole entry): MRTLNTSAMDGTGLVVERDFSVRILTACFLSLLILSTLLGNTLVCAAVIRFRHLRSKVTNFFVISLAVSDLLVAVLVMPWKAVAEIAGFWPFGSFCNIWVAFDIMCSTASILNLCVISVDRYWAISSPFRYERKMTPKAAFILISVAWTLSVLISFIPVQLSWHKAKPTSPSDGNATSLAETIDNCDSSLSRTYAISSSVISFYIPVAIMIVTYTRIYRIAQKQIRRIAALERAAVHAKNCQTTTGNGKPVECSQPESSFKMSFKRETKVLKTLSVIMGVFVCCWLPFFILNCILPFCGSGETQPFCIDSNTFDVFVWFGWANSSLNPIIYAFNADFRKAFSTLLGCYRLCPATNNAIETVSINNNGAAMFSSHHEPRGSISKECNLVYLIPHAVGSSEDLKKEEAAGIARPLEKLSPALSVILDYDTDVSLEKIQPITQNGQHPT
Also: assay procedure not described here.

Chain of D(3) dopamine receptor (P35462 whole entry): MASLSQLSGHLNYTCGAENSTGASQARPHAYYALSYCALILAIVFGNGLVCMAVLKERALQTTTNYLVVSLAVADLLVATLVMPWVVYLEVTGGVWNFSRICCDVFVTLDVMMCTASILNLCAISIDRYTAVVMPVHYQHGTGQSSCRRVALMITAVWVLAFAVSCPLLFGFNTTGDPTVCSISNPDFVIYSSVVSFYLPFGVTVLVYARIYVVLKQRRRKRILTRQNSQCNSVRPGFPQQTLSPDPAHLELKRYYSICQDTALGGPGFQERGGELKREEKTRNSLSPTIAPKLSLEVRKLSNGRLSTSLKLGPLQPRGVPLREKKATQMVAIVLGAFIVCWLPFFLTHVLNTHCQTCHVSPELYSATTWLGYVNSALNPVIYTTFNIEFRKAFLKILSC

| Structure (SMILES) | AC50 (D(3) dopamine receptor) [µM] | AC50 [1] [µM] | AC50 [2] [µM] | AC50 [3] [µM] | AC50 [4] [µM] | AC50 (Prothrombin) [µM] | AC50 [5] [µM] | AC50 (Histamine H3 receptor) [µM] | AC50 [6] [µM] | AC50 (Thromboxane A2 receptor [7]) [µM] | AC50 [8] [µM] | AC50 (Thromboxane A2 receptor [9]) [µM] | AC50 (D(1A) dopamine receptor) [µM] |
| --- | --- | --- | --- | --- | --- | --- | --- | --- | --- | --- | --- | --- | --- |
| Nc1cccc2c1C(=O)N(C1CCC(=O)NC1=O)C2=O (stereo unspecified) [POMALIDOMIDE] | > 30 | > 30 | > 30 | > 30 | > 30 | > 30 | > 30 | > 30 | > 30 | > 30 | > 30 | 26.7 | > 30 |
| C[Se]CC[C@H](N)C(=O)O [SELENOMETHIONINE] | > 30 | > 30 | > 30 | > 30 | > 30 | > 30 | > 30 | > 30 | > 30 | > 30 | > 30 | > 30 | > 30 |
| Cc1ccsc1C(=CCCN1CCC[C@@H](C(=O)O)C1)c1sccc1C [TIAGABINE] | > 30 | > 30 | > 30 | > 30 | > 30 | > 30 | > 30 | > 30 | > 30 | > 30 | > 30 | > 30 | > 30 |
| Cc1ccc(C(=O)c2ccc(CC(=O)O)n2C)cc1 [TOLMETIN] | > 30 | > 30 | > 30 | > 30 | 0.0415 | > 30 | > 30 | > 30 | > 30 | > 30 | > 30 | > 30 | > 30 |
| Cc1ccccc1C(=O)Nc1ccc(C(=O)N2CCCC(O)c3cc(Cl)ccc32)c(C)c1 (stereo unspecified) [TOLVAPTAN] | > 30 | > 30 | > 30 | > 30 | > 30 | > 30 | > 30 | > 30 | 11 | 7.42 | > 30 | > 30 | > 30 |
| C[C@]12C=CC(=O)C=C1CC[C@H]1[C@@H]3C[C@@H](O)[C@](O)(C(=O)CO)[C@@]3(C)C[C@H](O)[C@@]12F [TRIAMCINOLONE] | > 30 | > 30 | > 30 | > 30 | > 30 | > 30 | > 30 | > 30 | > 30 | > 30 | > 30 | > 30 | > 30 |
| CC[C@]12CCCN3CCc4c(n(c5ccccc45)[C@@](O)(C(=O)OC)C1)[C@@H]32 [VINCAMINE] | > 30 | > 30 | > 30 | > 30 | > 30 | > 30 | 0.46 | > 30 | > 30 | > 30 | > 30 | > 30 | > 30 |
